Results as given in patent US4444691A, “11-Cyano-prostaglandins of the F-series” (American Cyanamid Company, priority 1982, dated 1984).
Read-outs that look alike come from different tables or passages of the source.

Assays:
[1] = system: bronchospasms elicited by 5-hydroxytryptamine; assay: Bronchodilator activity (Konzett assay), 5-hydroxytryptamine bronchospasm; assay type: in vivo, guinea pigs; details: spasmogenic agent 5-hydroxytryptamine, three logarithmic cumulative intravenous doses; for ED50: Cavia porcellus
Protocol: (§1) Bronchodilator activity was determined in guinea pigs against bronchospasms elicited by intravenous injections of 5-hydroxytryptamine, histamine or acetylchlorine by the Konzett procedure. (See J. Lulling, P. Licvens, F. El Sayed and J. Prignot, Arzneinittel-Forschung, 18, 995 (1968).]
(§2) In the Table which follows bronchodilator activity for representative compounds of this invention against one or more of the three spasmogenic agents is expressed as an ED50 determined from the results obtained with three logarithmic cumulative intravenous doses.

[2] = system: gastric acid secretion; assay: Gastric acid secretion inhibition, modified Shay rat procedure; assay type: in vivo, rats (male, CFE strain)
Description: The novel compounds of the present invention are effective inhibitors of gastric acid secretion and of ulcer development in experimental animals, and thus are potentially valuable as agents for the control of gastric secretion and of gastric erosion and as anti-ulcer agents. Gastric acid secretion inhibitory action is usually measured by the "Shay rat" procedure ^(1,2) with some modifications as follows.
(1) Shay et al., Gastroenterology, 5, 43 (1945).
The rats (male, CFE strain) were starved for 48 hours (water was given ad libitum) to permit evacuation of stomach contents. On the morning of the experiment, under ether anesthesia, the abdominal region was shaved and a midline incision (1-11/2" ) was made with a scapel. With the help of a closed curved hemostat the duodenum was picked up. Upon getting the duodenum into view, fingers were used to pull the stomach through the opening, the stomach was then gently manipulated with fingers to rid stomach of air and residual matter which were pushed through the pylorus. Two-5 inch sutures were drawn under the pyloric-duodenal puncture. A ligature at the juncture, was formed with one of the threads. The second ligature was also formed but not tightened.
The test compound or the vehicle, usually 1 ml./100 g. body weight, were injected into the duodenum as close as possible to the first ligature. After injection the second ligature was tightened below the injection site to minimize leakage. The stomach was placed back through the opening into the abdominal cavity, the area of incision was washed with saline and the incision was closed with autoclips. (Occasionally, instead of an intraduodenal injection, animals were dosed by the oral or subcutaneous route. In the latter case, dosing was done thirty to sixty minutes before the operation.)
The abdominal cavity was exposed by cutting with scissors and the esophagus close to the stomach was clamped off with a hemostat, the stomach was removed by cutting above the hemostat (the esophagus was cut) and between the two sutures. Extraneous tissue was removed, the stomach washed with saline and blotted on gauze. A slit was carefully made in the stomach which was held over a funnel and the contents were collected in a centrifuge tube. The stomach was further cut along the outside edge and turned inside out. Two ml. H2 O were used to wash the stomach contents into the respective centrifuge tube. The combined stomach contents and wash were then centrifuged out for 10 minutes in the International Size 2 Centrifuge (setting at 30). The supernatant was collected, volume measured and recorded, 2 drops of a phenylphthalein indicator (1% in 95% ethanol) were added and the solution was titrated with 0.02 N NaOH (or with 0.04 N NaOH when large volumes of stomach contents were encountered) to pH 8.4 (because of usual coloring of the stomach contents, phenolphthalein was only used to permit visual indication that the end point was near) and the amount of acid present was calculated.
Compounds inducing inhibition of gastric acid secretion of 20% or more were considered active. In a representative operation, and merely by way of illustration, the results obtained with this assay with typical compounds of the present invention are given in Table II below.

[3] = system: basal gastric acid secretion; assay: Inhibition of total acid output (basal gastric acid secretion) in the acute gastric fistula rat; assay type: in vivo, female Sprague-Dawley rats; details: intraduodenal, 10 mg/kg; for inhibition in vivo at 10 mg/kg: Rattus norvegicus
Protocol: Inhibition of basal gastric acid secretion can be determined by the following procedure.
Female Sprague-Dawley rats weighing 140-160 grams are fasted in individual cages for 18-24 hours. The rats are then lightly anesthetized with ether and their front teeth extracted to avoid destruction of the plastic cannula. A midline incision is then made and the stomach and duodenum exposed. A flanged polyvinyl tube is inserted into the fundic portion of the stomach and secured with a purse string suture line using 4-O Mersilene. The rat is then dosed by injection of the compound into the duodenum (1.0 ml. per 100 gram body weight). After dosing, the abdominal wall and skin are closed using metal wound clips. The rat is replaced in a cage containing a longitudinal slit to allow the polyvinyl tube to hang freely. An 8 ml. plastic collecting tube is attached to the flanged cannula and hangs freely below the cage. The first 30 minute sample is discarded designating this time as zero. The collecting tube is attached again and samples removed at the end of 60 and 120 minutes. These samples are referred to as "A" and "B" in the table. The hourly samples are then transferred to a 15 ml. centrifuge and centrifuged for 5-10 minutes. Total and sediment volume are then recorded with the supernatent volume being used as volume of secretion. A 1 ml. or less aliquot is then removed and placed in a 50 ml. beaker containing 10 ml. of distilled water. This sample is then titrated using 0.01 N NaPH to pH 7.0 using a Beckman zeromatic pH meter. Volume, titratable acidity (mew/L) and total acid output (ueq/hour) are recorded. Percent inhibition is determined by comparison with the appropriate control. Groups of three rats were used for preliminary testing, and groups of six rats were used for dose-response evaluations. All compounds are administered in a vehicle consisting of 0.5% methocel, 0.4% tween 80, and saline at a constant volume of 1 ml./100 gram rat. Samples are dispersed by sonification. Percent inhibition is calculated on basis of concurrent vehicle control.
In Table III which follows is given the effect on total acid output after 60 minutes and 120 minutes of intraduodenal dose, of representative compounds of this invention.

[4] = system: bronchospasms elicited by histamine; assay: Bronchodilator activity (Konzett assay), histamine bronchospasm; assay type: in vivo, guinea pigs; details: spasmogenic agent histamine, three logarithmic cumulative intravenous doses; for ED50: Cavia porcellus, iv
Protocol: as §1, §2

[5] = system: ulcerogenic effects induced by indomethacin (stomach ulcers); assay type: in vivo, rat; details: indomethacin 20 mg/kg s.c., score 0-4
Protocol: It is further to be noted that although prostaglandins in general are not effective when administered by oral route, the compounds of this invention are effective orally. The assay to determine the protective effect of these compounds is carried out in the following manner.
Rats were starved for 48 hours (water was given ad libitum). Indomethacin (20 mg./kg. of body weight) was administered by the subcutaneous route and one-half the dose of the test compound was administered by gavage at the same time. After three hours, the second half of the test compound was administered, also by gavage. Five hours after the administration of indomethacin the animals were decapitated and the stomachs removed. The stomachs were washed with distilled water, blotted on gauze, cut along the larger curvature, and the contents rinsed with distilled water. The stomachs were spread out, pinned on a cork and visualized under magnifying glass for ulcers. The criteria for scoring of ulcers was as previously reported. [Abdel-Galil et al. Brit. J. Pharmac. Chemotherapy 33:1-14 (1968)]. […]
1 Petechial hemorrhage of pin point ulcers
3 Many ulcers, a few large
4 Many ulcers, mainly large
Control animals treated with indomethacin but not test compound consistently give scores of about 2.5-3.5. Control animals treated with neither indomethacin not test compound give scores of about 0.5-0.8. Compounds diminishing the control ulcer score by 0.5 unit or more are considered to be active.

[6] = system: bronchospasms elicited by acetylcholine; assay: Bronchodilator activity (Konzett assay), acetylcholine bronchospasm; assay type: in vivo, guinea pigs; details: Cavia porcellus; spasmogenic agent acetylcholine; three logarithmic cumulative intravenous doses
Protocol: as §1, §2

[7] = Rattus norvegicus, intraduodenal, 50 mg/kg, read-out: Percent inhibition of gastric acid secretion
[8] = total oral dose 25 mg/kg, controls 2.7-3.9
[9] = 1 h, 60 min, read-out: % Inhibition of total acid output, after 60 minutes (A)
[10] = 2 h, 120 min, read-out: % Inhibition of total acid output, after 120 minutes (B)
[11] = total oral dose 12.5 mg/kg, controls 2.5-3.0

| Compound | inhibition in vivo at 50 mg/kg [2, 7] [%] | ED50 [1] [mg/kg] | ED50 [4] [mg/kg] | ED50 [6] [mg/kg] | also measured |
| --- | --- | --- | --- | --- | --- |
| CC/C=C\CC(O)/C=C/C1C(C/C=C\CCCC(=O)O)C(=O)CC1C(C(=O)O)C(=O)O (stereo not drawn) [l-11α-dicarboxymethyl-11-deoxyprostaglandin-E3] | – | – | – | – | ED50, bronchodilator activity [1]: 3.3 mg/kg |
| CCCCC[C@H](O)/C=C/[C@H]1[C@H](C(N)=O)CC(=O)[C@@H]1C/C=C\CCCC(=O)O [11α-carboxamido-11-deoxyprostaglandin E2] | – | – | – | – | Percent inhibition of gastric acid secretion ([2]; intraduodenal, 50 mg/kg): 27%; ED50, bronchodilator activity [1]: 1.7 mg/kg; % Inhibition of total acid output, after 60 minutes (A) ([3]; 60 min): 27%; % Inhibition of total acid output, after 120 minutes (B) ([3]; 120 min): 35%; ED50, bronchodilator activity [4]: 0.53 mg/kg |
| CCCCC[C@H](O)/C=C/[C@@H]1[C@@H](C/C=C\CCCC(=O)O)[C@@H](O)C[C@H]1C [l-11α-methyl-11-deoxyprostaglandin-F2 α, 11-deoxy-11α-methyl-prostaglandin F2α] | 70 | 0.038 | 0.013 | – | Ulcer score, treated animals [5, 8]: 1.8 |
| CCCCC[C@H](O)/C=C/[C@@H]1[C@@H](C/C=C\CCCC(=O)O)C(=O)C[C@H]1c1ccccc1 [l-11α-phenyl-11-deoxyprostaglandin-E2, l-11-deoxy-11α-phenylprostaglandin-E2] | 58 | 0.46 | – | – | – |
| CCCCC[C@H](O)/C=C/[C@H]1[C@H](C[N+](=O)[O-])CC(=O)[C@@H]1C/C=C\CCCC(=O)O [11-deoxy-11α-nitromethyl prostaglandin E2] | – | – | 1.4 | 1.7 | inhibition in vivo at 100 mg/kg ([2]; Rattus norvegicus, intraduodenal, 100 mg/kg, read-out: Percent inhibition of gastric acid secretion): 74%; Ulcer score, treated animals ([5]; total oral dose 100 mg/kg, controls 3.2): 1.0 |
| CCCCC[C@H](O)/C=C/[C@@H]1[C@@H](C/C=C\CCCC(=O)O)C(=O)C[C@H]1C(C)C [l-11α-isopropyl-11-deoxyprostaglandin-E2, 11-deoxy-11α-isopropyl-prostaglandin E2] | 42 | 8.95 | – | – | – |
| C=C[C@@H]1CC(=O)[C@H](C/C=C\CCCC(=O)O)[C@H]1/C=C/[C@@H](O)CCCCC [l-11α-vinyl-11-deoxyprostaglandin-E2, 11-deoxy-11α-vinyl-prostaglandin E2] | 59 | 1.2 | 1.3 | – | – |
| CCCCC[C@H](O)/C=C/[C@@H]1[C@@H](C/C=C\CCCC(=O)O)[C@@H](O)C[C@H]1C#N [l-11α-cyano-11-deoxyprostaglandin-F2 α, 11α-cyano-11-deoxyprostaglandin F2 α] | 43 | 0.03 | – | 0.051 | Ulcer score, treated animals [5, 8]: 1.3 |
| CCCCCC(C)/C=C/[C@H]1[C@H](C)CC(=O)[C@@H]1C/C=C\CCCC(=O)O (stereo partly drawn) [l-11α,15-dimethyl-11,15-bisdeoxyprostaglandin-E2] | 60 | 18.1 | – | – | – |
| CCCCC[C@H](O)/C=C/[C@H]1[C@@H](C#N)CC(=O)[C@@H]1C/C=C\CCCC(=O)O [l-11β-cyano-11-deoxyprostaglandin-E2, l-11-deoxy-11β-cyanoprostaglandin-E2] | – | 3.1 | 54.9 | – | inhibition in vivo at 10 mg/kg [3, 9]: 26%; inhibition in vivo at 10 mg/kg [3, 10]: 43% |
| CCCCC[C@H](O)/C=C/[C@@H]1[C@@H](C/C=C\CCCC(=O)O)[C@@H](O)C[C@H]1SC [11α-methylthio-11-deoxyprostaglandin F2α] | 61 | 2.63 | 1.6 | – | Ulcer score, treated animals [5, 11]: 1.2 |
| CCCCC[C@H](O)CC[C@H]1[C@H](C)CC(=O)[C@@H]1CCCCCCC(=O)O [11-deoxy-11α-methyl-13,14-dihydroprostaglandin E1] | 45 | – | – | 0.773 | Ulcer score, treated animals [5, 11]: 2.3; Ulcer score, treated animals ([5]; total oral dose 50 mg/kg, controls 2.5-3.2): 1.7 |
| CCCCC[C@H](O)/C=C/[C@H]1[C@H](CC)CC(=O)[C@@H]1C/C=C\CCCC(=O)O [l-11α-ethyl-11-deoxyprostaglandin-E2, 11-deoxy-11α-ethyl-prostaglandin E2] | – | – | 1.24 | 3.9 | Ulcer score, treated animals [5, 8]: 2.2; inhibition in vivo at 10 mg/kg [3, 9]: 57%; inhibition in vivo at 10 mg/kg [3, 10]: 66% |
| CCCCC[C@H](O)/C=C/[C@H]1[C@@H](CO)CC(=O)[C@@H]1C/C=C\CCCC(=O)O [11-deoxy-11β-hydroxymethyl-prostaglandin E2] | – | 0.3 | 0.065 | 0.25 | inhibition in vivo at 8 mg/kg ([2]; Rattus norvegicus, sc, subcutaneous, 8 mg/kg, read-out: Percent inhibition of gastric acid secretion): 44% |
| CCCCC[C@H](O)/C=C/[C@H]1[C@H](C#N)CC(=O)[C@@H]1C/C=C\CCCC(=O)O [l-11α-cyano-11-deoxyprostaglandin-E2, l-11-deoxy-11α-cyanoprostaglandin-E2] | – | 0.0003 | 0.0014 | 0.0053 | inhibition in vivo at 10 mg/kg [3, 9]: 49%; inhibition in vivo at 10 mg/kg [3, 10]: 18% |
| CCCCC[C@H](O)/C=C/[C@H]1[C@H](CC(=O)O)CC(=O)[C@@H]1C/C=C\CCCC(=O)O [11-deoxy-11α-carboxymethylprostaglandin E2] | – | 5.5 | 3.4 | 4.6 | – |
